The test system of data set [1] is Hepatotoxicity. Briefly: Literature-mined compound from Fourches et al multi-species drug-induced liver injury (DILI) dataset, effect in humans. The note with it: human.
Data set [2] deals with Hepatotoxicity. Description: Literature-mined compound from Fourches et al multi-species drug-induced liver injury (DILI) dataset, effect in rodents. To be noted: rodentia.
The subject of data set [3] is Hepatotoxicity. Briefly: Literature-mined compound from Fourches et al multi-species drug-induced liver injury (DILI) dataset, effect in non-rodents.

Each structure is given as a SMILES string.

For the compound `Cc1cn([C@@H]2O[C@H](CO)[C@@H](O)[C@@H]2F)c(=O)[nH]c1=O` [5-METHYL-2'-FLUOROARAURACIL], the Hepatotoxicity entry is on record as “drug-induced liver injury reported” with Hepatotoxicity [1], “no drug-induced liver injury reported” in the data set on Hepatotoxicity [2] and “no drug-induced liver injury reported” in the data set on Hepatotoxicity [3].

Regarding `C[C@H](N)[C@H](O)c1ccccc1` [(1R,2S)-PHENYLPROPANOLAMINE], the Hepatotoxicity result with Hepatotoxicity [1] is “no drug-induced liver injury reported”; with Hepatotoxicity [2], “drug-induced liver injury reported”; with Hepatotoxicity [3] it was “no drug-induced liver injury reported”.

With `CC(C)=CCN1CC[C@]2(C)c3cc(O)ccc3C[C@H]1[C@H]2C` [(+)-PENTAZOCINE], the figures for the Hepatotoxicity entry with Hepatotoxicity [1], in the data set with Hepatotoxicity [2] and in the data set with Hepatotoxicity [3] were “no drug-induced liver injury reported”, “drug-induced liver injury reported” and “no drug-induced liver injury reported”, respectively.

As for `NC(=O)c1ncn([C@@H]2O[C@H](CO)[C@@H](O)[C@H]2O)c1N` [ACADESINE], the Hepatotoxicity entry in the data set on Hepatotoxicity [1] is reported as “no drug-induced liver injury reported”; in the data set on Hepatotoxicity [2], “drug-induced liver injury reported”; with Hepatotoxicity [3], “no drug-induced liver injury reported”.

Turning to `C[C@H]1O[C@H](O[C@H]2[C@H](O)[C@@H](O)[C@@H](O[C@H]3[C@H](O)[C@@H](O)C(O)O[C@@H]3CO)O[C@@H]2CO)[C@H](O)[C@@H](O)[C@@H]1N[C@H]1C=C(CO)[C@@H](O)[C@H](O)[C@H]1O` (some centres undefined) [ACARBOSE], the Hepatotoxicity result in the data set with Hepatotoxicity [1] is given as “drug-induced liver injury reported”; in the data set with Hepatotoxicity [2], “drug-induced liver injury reported”; with Hepatotoxicity [3] it was “no drug-induced liver injury reported”.

Turning to `CCCC(=O)Nc1ccc(OCC(O)CNC(C)C)c(C(C)=O)c1` (centres undefined) [ACEBUTOLOL], the Hepatotoxicity entry is reported as “drug-induced liver injury reported” with Hepatotoxicity [1], “drug-induced liver injury reported” in the data set on Hepatotoxicity [2] and “no drug-induced liver injury reported” in the data set with Hepatotoxicity [3].

In the case of `CC(=O)CC(c1ccc([N+](=O)[O-])cc1)c1c(O)c2ccccc2oc1=O` (centres undefined) [ACENOCOUMAROL], the Hepatotoxicity result is listed as “drug-induced liver injury reported” with Hepatotoxicity [1], “no drug-induced liver injury reported” in the data set with Hepatotoxicity [2] and “no drug-induced liver injury reported” in the data set with Hepatotoxicity [3].

On to `CC(N)=O` [ACETAMIDE], for which the results for the Hepatotoxicity entry in the data set with Hepatotoxicity [1], with Hepatotoxicity [2] and with Hepatotoxicity [3] were “no drug-induced liver injury reported”, “drug-induced liver injury reported” and “no drug-induced liver injury reported”, respectively.

In the case of `CC(=O)Nc1ccc(O)cc1` [ACETAMINOPHEN], the Hepatotoxicity entry in the data set on Hepatotoxicity [1], in the data set with Hepatotoxicity [2] and with Hepatotoxicity [3] was “drug-induced liver injury reported” each time.

Turning to `CC(=O)Nc1nnc(S(N)(=O)=O)s1` [ACETAZOLAMIDE], the Hepatotoxicity entry in the data set on Hepatotoxicity [1], with Hepatotoxicity [2] and in the data set on Hepatotoxicity [3] was “drug-induced liver injury reported” each time.

On to `CC(=O)O` [ACETIC ACID], for which the Hepatotoxicity result in the data set on Hepatotoxicity [1] (Liver), with Hepatotoxicity [2] (Liver) and in the data set on Hepatotoxicity [3] (Liver) was “drug-induced liver injury reported” throughout.

In the case of `CC(=O)c1ccc(S(=O)(=O)NC(=O)NC2CCCCC2)cc1` [ACETOHEXAMIDE], the Hepatotoxicity entry with Hepatotoxicity [1] is listed as “drug-induced liver injury reported”; with Hepatotoxicity [2] it was “no drug-induced liver injury reported”; in the data set with Hepatotoxicity [3], “no drug-induced liver injury reported”.

For `CC(=O)NO` [ACETOHYDROXAMIC ACID], the Hepatotoxicity entry in the data set on Hepatotoxicity [1] was “no drug-induced liver injury reported”; with Hepatotoxicity [2], “drug-induced liver injury reported”; in the data set on Hepatotoxicity [3], “no drug-induced liver injury reported”.

As to `CC(=O)Nc1c(I)cc(I)c(C(=O)[O-])c1I.O.[Na+]` [ACETRIZOATE SODIUM], the Hepatotoxicity entry with Hepatotoxicity [1] is on record as “no drug-induced liver injury reported”; with Hepatotoxicity [2], “drug-induced liver injury reported”; in the data set with Hepatotoxicity [3] it was “no drug-induced liver injury reported”.

Turning to `CC(=O)O[C@H](CC(=O)[O-])C[N+](C)(C)C` [ACETYLCARNITINE], the Hepatotoxicity entry in the data set on Hepatotoxicity [1] is reported as “no drug-induced liver injury reported”; with Hepatotoxicity [2], “drug-induced liver injury reported”; in the data set on Hepatotoxicity [3], “no drug-induced liver injury reported”.

Consider `CC(=O)OCC[N+](C)(C)C` [ACETYLCHOLINE], for which the Hepatotoxicity entry with Hepatotoxicity [1] (Liver) is listed as “no drug-induced liver injury reported”; in the data set with Hepatotoxicity [2] (Liver), “drug-induced liver injury reported”; with Hepatotoxicity [3] (Liver) it was “drug-induced liver injury reported”.

As for `CC(=O)N[C@@H](CS)C(=O)O` [ACETYLCYSTEINE], the Hepatotoxicity result is “drug-induced liver injury reported” in the data set with Hepatotoxicity [1], “drug-induced liver injury reported” in the data set with Hepatotoxicity [2] and “no drug-induced liver injury reported” in the data set with Hepatotoxicity [3].

In the case of `COc1cc(C)c(/C=C/C(C)=C/C=C/C(C)=C/C(=O)O)c(C)c1C` [ACITRETIN], the Hepatotoxicity result with Hepatotoxicity [1] is recorded as “drug-induced liver injury reported”; with Hepatotoxicity [2], “drug-induced liver injury reported”; with Hepatotoxicity [3] it was “no drug-induced liver injury reported”.

For the compound `Nc1nc2c(ncn2COCCO)c(=O)[nH]1` [ACYCLOVIR], the Hepatotoxicity entry is “drug-induced liver injury reported” with Hepatotoxicity [1], “drug-induced liver injury reported” in the data set on Hepatotoxicity [2] and “no drug-induced liver injury reported” in the data set with Hepatotoxicity [3].

For `CC(C)(C)C(=O)OCOP(=O)(COCCn1cnc2c(N)ncnc21)OCOC(=O)C(C)(C)C` [ADEFOVIR DIPIVOXIL], the Hepatotoxicity entry is reported as “drug-induced liver injury reported” with Hepatotoxicity [1], “drug-induced liver injury reported” with Hepatotoxicity [2] and “no drug-induced liver injury reported” in the data set with Hepatotoxicity [3].

Consider `Nc1ncnc2nc[nH]c12` [ADENINE], for which the Hepatotoxicity result in the data set with Hepatotoxicity [1] is recorded as “no drug-induced liver injury reported”; in the data set on Hepatotoxicity [2] it was “drug-induced liver injury reported”; in the data set on Hepatotoxicity [3] it was “no drug-induced liver injury reported”.

Turning to `Nc1ncnc2c1ncn2[C@@H]1O[C@H](COP(=O)(O)OP(=O)(O)OP(=O)(O)O)[C@@H](O)[C@H]1O` [ADENOSINE TRIPHOSPHATE], the Hepatotoxicity entry is reported as “no drug-induced liver injury reported” with Hepatotoxicity [1], “drug-induced liver injury reported” in the data set with Hepatotoxicity [2] and “no drug-induced liver injury reported” in the data set with Hepatotoxicity [3].

For `Nc1ncnc2c1ncn2[C@@H]1O[C@H](CO)[C@@H](O)[C@H]1O` [ADENOSINE], the Hepatotoxicity entry in the data set with Hepatotoxicity [1], in the data set with Hepatotoxicity [2] and in the data set on Hepatotoxicity [3] was “drug-induced liver injury reported” in each case.

`CC[C@H]1[C@@H]2C[C@H]3[C@@H]4N(C)c5ccccc5[C@]45C[C@@H]([C@@H]2[C@H]5O)N3[C@@H]1O` [AJMALINE]: the Hepatotoxicity entry in the data set on Hepatotoxicity [1] is recorded as “drug-induced liver injury reported”; in the data set with Hepatotoxicity [2], “no drug-induced liver injury reported”; in the data set on Hepatotoxicity [3] it was “no drug-induced liver injury reported”.

With `N[C@@H](CN(O)N=O)C(=O)O` [ALANOSINE], the Hepatotoxicity result is given as “no drug-induced liver injury reported” with Hepatotoxicity [1], “drug-induced liver injury reported” with Hepatotoxicity [2] and “no drug-induced liver injury reported” with Hepatotoxicity [3].

With `CS(=O)(=O)O.C[C@H](N)C(=O)N[C@@H](C)C(=O)N[C@H]1[C@@H]2CN(c3nc4c(cc3F)c(=O)c(C(=O)O)cn4-c3ccc(F)cc3F)C[C@@H]21` [ALATROFLOXACIN MESYLATE], the Hepatotoxicity result with Hepatotoxicity [1] is recorded as “drug-induced liver injury reported”; with Hepatotoxicity [2], “no drug-induced liver injury reported”; with Hepatotoxicity [3], “no drug-induced liver injury reported”.

As to `CCCSc1ccc2nc(NC(=O)OC)[nH]c2c1` [ALBENDAZOLE], the values for the Hepatotoxicity entry in the data set with Hepatotoxicity [1], in the data set on Hepatotoxicity [2] and with Hepatotoxicity [3] were “drug-induced liver injury reported”, “no drug-induced liver injury reported” and “no drug-induced liver injury reported”, respectively.

Consider `CC(C)(C)NCC(O)c1ccc(O)c(CO)c1` (centres undefined) [ALBUTEROL], for which the Hepatotoxicity result is on record as “no drug-induced liver injury reported” with Hepatotoxicity [1] (Liver), “drug-induced liver injury reported” in the data set on Hepatotoxicity [2] (Liver) and “no drug-induced liver injury reported” in the data set with Hepatotoxicity [3] (Liver).

Turning to `CCO` [ALCOHOL], the Hepatotoxicity entry in the data set on Hepatotoxicity [1] (Liver), in the data set with Hepatotoxicity [2] (Liver) and with Hepatotoxicity [3] (Liver) was “drug-induced liver injury reported” in each case.

For the compound `C=C1/C(=C\C=C2/CCC[C@]3(C)[C@@H]([C@H](C)CCCC(C)C)CC[C@@H]23)C[C@@H](O)C[C@@H]1O` [ALFACALCIDOL], the Hepatotoxicity entry with Hepatotoxicity [1] is reported as “drug-induced liver injury reported”; in the data set with Hepatotoxicity [2] it was “no drug-induced liver injury reported”; in the data set on Hepatotoxicity [3], “no drug-induced liver injury reported”.

For `COc1cc2nc(N(C)CCCNC(=O)C3CCCO3)nc(N)c2cc1OC` (centres undefined) [ALFUZOSIN], the figures for the Hepatotoxicity entry in the data set on Hepatotoxicity [1], with Hepatotoxicity [2] and in the data set with Hepatotoxicity [3] were “drug-induced liver injury reported”, “no drug-induced liver injury reported” and “no drug-induced liver injury reported”, respectively.

Turning to `CC1=C(/C=C/C(C)=C\C=C\C(C)=C\C(=O)O)C(C)(C)CCC1` [ALITRETINOIN], the Hepatotoxicity result in the data set with Hepatotoxicity [1] was “drug-induced liver injury reported”; in the data set with Hepatotoxicity [2], “drug-induced liver injury reported”; in the data set on Hepatotoxicity [3], “no drug-induced liver injury reported”.

As for `NC(=O)NC1NC(=O)NC1=O` (centres undefined) [ALLANTOIN], the values for the Hepatotoxicity entry in the data set on Hepatotoxicity [1], in the data set with Hepatotoxicity [2] and with Hepatotoxicity [3] were “no drug-induced liver injury reported”, “drug-induced liver injury reported” and “no drug-induced liver injury reported”, respectively.

The values above are taken from ChEMBL document CHEMBL1697731, “Cheminformatics analysis of assertions mined from literature that describe drug-induced liver injury in different species” (Chem Res Toxicol, 2010).
